System: osteoclast formation
Experiment: Inhibition rate of furan derivatives versus osteoclast formation (TRAP staining)
Assay type: cell-based, mice
Conditions: TRAP-positive multinucleated cells, untreated control set as 100%
Method: First, bone marrow cells were isolated, as follow. After sacrificing 7-9 week female mice by cervical dislocation, femur and tibia were excised aseptically while removing attached soft tissues. After cutting both ends of long bones, 1 ml of an enzyme solution, containing 0.1% collagenase (Gibco), 0.05% trypsin and 0.5 mM EDTA (Gibco), was injected to the bone marrow cavity at one end using a syringe with a 26-guage needle, and bone marrow was then collected. After shaking the recovered bone marrow for 30 min, bone marrow cells were collected, and cultured in α-minimum essential medium (α-MEM) supplemented with 10% FBS for 24 hrs. Then, non-adherent cells were collected, which are osteoclast pregenitors, aliquotted onto culture plates at a density of 2×10^5 cells per well, and cultured for 8 days in α-MEM supplemented with 20 ng/ml of macrophage-colony stimulating factor (M-CSF, Peprotech, USA) and 30 ng/ml RANKL (Peprotech, USA). During the 8 days of culturing, the cells were treated with the Compound 1. Thereafter, osteoclast formation was investigated by fixing the cultured cells and then carrying out TRAP staining, as described in the following Experimental Example 2.2. In addition, resorption activity of osteoclasts was investigated by measuring the absorption area after removing osteoclasts in cultures in calcium phosphate-coated plates, as described in Experimental Example 2.3, below.
After cell culture, the adherent cells were washed with PBS, and TRAP staining was performed, as follows. After being fixed with citrate-acetate-formaldehyde for 5 min, the cells were incubated for 1 hr in acetate buffer (prewarmed at 37° C., pH 5.0) containing naphthol AS-BI phosphate, fast Garnet GBC and 7 mM tartrate buffer (pH 5.0). TRAP-positive multinucleated cells having 3 or more nuclei were considered as osteoclasts.
Osteoclast pregenitor cells were isolated, and their differentiation to mature osteoclasts was induced, according to the same method as in the Experimental Example 2-1, while treated with each of the furan derivatives of the present invention. According to the same method as in the Experimental Example 2-2, TRAP staining performed, and TRAP-positive multinucleated cells were counted. An inhibition rate of each furan derivative against osteoclast formation was expressed as percentage, wherein the number of stained cells in a control not treated the furan derivative was arbitrarily set as 100% (Tables 14 to 16).

## COC(=O)c1ccc(COc2ccc(Cl)cc2)o1 [Compound 80]
0.1 μM
  Inhibition rate against osteoclast formation, %: 0%
1 μM
  Inhibition rate against osteoclast formation, %: 0%

## COC(=O)c1ccc(CN(C)C)o1 [Compound 85]
0.1 μM
  Inhibition rate against osteoclast formation, %: 0%
1 μM
  Inhibition rate against osteoclast formation, %: 0%

## COC(=O)c1ccc(CNc2ccccc2)o1 [Compound 89]
0.1 μM
  Inhibition rate against osteoclast formation, %: 0%
1 μM
  Inhibition rate against osteoclast formation, %: 0%

## COC(=O)c1ccc(CNC(C)(C)C)o1 [Compound 91]
0.1 μM
  Inhibition rate against osteoclast formation, %: 0%
1 μM
  Inhibition rate against osteoclast formation, %: 0%

## COc1ccccc1OCc1ccc(C(=O)OC(C)C)o1 [Compound 94]
0.1 μM
  Inhibition rate against osteoclast formation, %: 0%
1 μM
  Inhibition rate against osteoclast formation, %: 0%
10 μM
  Inhibition rate against osteoclast formation, %: 5.9%

## CC(C)OC(=O)c1ccc(COc2cc(Cl)ccc2Cl)o1 [Compound 95]
0.1 μM
  Inhibition rate against osteoclast formation, %: 0%
1 μM
  Inhibition rate against osteoclast formation, %: 0%
10 μM
  Inhibition rate against osteoclast formation, %: 0.97%

## COc1ccccc1OCc1ccc(C(=O)Oc2ccc(Cl)cc2)o1 [Compound 97]
0.1 μM
  Inhibition rate against osteoclast formation, %: 0%
1 μM
  Inhibition rate against osteoclast formation, %: 0%

## O=C(Oc1ccccc1)c1ccc(COc2ccccc2Cl)o1 [Compound 98]
0.1 μM
  Inhibition rate against osteoclast formation, %: 0%
1 μM
  Inhibition rate against osteoclast formation, %: 0%

## CCCc1ccc(OCc2ccc(C(=O)O)o2)cc1 [Compound 100]
0.1 μM
  Inhibition rate against osteoclast formation, %: 0%
1 μM
  Inhibition rate against osteoclast formation, %: 0%

## O=C(O)c1ccc(COc2ccc(F)cc2)o1 [Compound 102]
0.1 μM
  Inhibition rate against osteoclast formation, %: 0%
1 μM
  Inhibition rate against osteoclast formation, %: 0%

## O=C(O)c1ccc(COc2ccc(Br)cc2)o1 [Compound 103]
0.1 μM
  Inhibition rate against osteoclast formation, %: 0%
1 μM
  Inhibition rate against osteoclast formation, %: 0%

## O=C(O)c1ccc(COc2ccccc2Cl)o1 [Compound 107]
0.1 μM
  Inhibition rate against osteoclast formation, %: 0%
1 μM
  Inhibition rate against osteoclast formation, %: 0%
10 μM
  Inhibition rate against osteoclast formation, %: 32%

## O=C(O)c1ccc(COc2ccccc2Br)o1 [Compound 108]
0.1 μM
  Inhibition rate against osteoclast formation, %: 0%
1 μM
  Inhibition rate against osteoclast formation, %: 0%

## O=C(O)c1ccc(COc2cc(Cl)ccc2Cl)o1 [Compound 109]
0.1 μM
  Inhibition rate against osteoclast formation, %: 0%
1 μM
  Inhibition rate against osteoclast formation, %: 0%

## O=C(O)c1ccc(COc2cccc(Cl)c2)o1 [Compound 112]
0.1 μM
  Inhibition rate against osteoclast formation, %: 0%
1 μM
  Inhibition rate against osteoclast formation, %: 0%

## CC(C)c1ccc(OCc2ccc(C(=O)O)o2)cc1 [Compound 114]
0.1 μM
  Inhibition rate against osteoclast formation, %: 0%
1 μM
  Inhibition rate against osteoclast formation, %: 0%
10 μM
  Inhibition rate against osteoclast formation, %: 4.2%

## O=C(O)c1ccc(COc2cccc3ccccc23)o1 [Compound 117]
0.1 μM
  Inhibition rate against osteoclast formation, %: 0%
1 μM
  Inhibition rate against osteoclast formation, %: 0%

## Cc1cc(OCc2ccc(C(=O)O)o2)ccc1Cl [Compound 119]
0.1 μM
  Inhibition rate against osteoclast formation, %: 0%
1 μM
  Inhibition rate against osteoclast formation, %: 0%

## O=C(O)c1ccc(CSCc2ccccc2)o1 [Compound 120]
0.1 μM
  Inhibition rate against osteoclast formation, %: 0%
1 μM
  Inhibition rate against osteoclast formation, %: 0%

## CCC(C)NC(=O)c1ccc(COc2ccc(I)cc2)o1 (centres unmarked) [Compound 121]
0.1 μM
  Inhibition rate against osteoclast formation, %: 0%
1 μM
  Inhibition rate against osteoclast formation, %: 0%

## CCN(CC)C(=O)c1ccc(COc2ccc(Cl)c(C)c2)o1 [Compound 123]
0.1 μM
  Inhibition rate against osteoclast formation, %: 0%
1 μM
  Inhibition rate against osteoclast formation, %: 6.9%
10 μM
  Inhibition rate against osteoclast formation, %: 100%

## CC1CCN(C(=O)c2ccc(COc3cc(Cl)ccc3Cl)o2)CC1 [Compound 124]
0.1 μM
  Inhibition rate against osteoclast formation, %: 0%
1 μM
  Inhibition rate against osteoclast formation, %: 0%

## CC(C)(C)NC(=O)c1ccc(COCC(F)(F)F)o1 [Compound 127]
0.1 μM
  Inhibition rate against osteoclast formation, %: 0%
1 μM
  Inhibition rate against osteoclast formation, %: 0%

## O=C(c1ccc(COc2ccccc2Br)o1)N1CCCCCC1 [Compound 128]
1 μM
  Inhibition rate against osteoclast formation, %: 0%

## CC(C)(C)NC(=O)c1ccc(COc2ccccc2Br)o1 [Compound 129]
0.1 μM
  Inhibition rate against osteoclast formation, %: 0%
1 μM
  Inhibition rate against osteoclast formation, %: 0%
10 μM
  Inhibition rate against osteoclast formation, %: 2.2%

## CC(C)NC(=O)c1ccc(CNc2cc(Cl)ccc2Cl)o1 [Compound 130]
0.1 μM
  Inhibition rate against osteoclast formation, %: 0%
1 μM
  Inhibition rate against osteoclast formation, %: 0%

## Cc1cc(OCc2ccc(C(=O)N3CCOCC3)o2)ccc1Cl [Compound 132]
0.1 μM
  Inhibition rate against osteoclast formation, %: 0%
1 μM
  Inhibition rate against osteoclast formation, %: 0%

## O=C(c1ccc(COc2cc(Cl)ccc2Cl)o1)N1CCCCCC1 [Compound 133]
0.1 μM
  Inhibition rate against osteoclast formation, %: 0%
1 μM
  Inhibition rate against osteoclast formation, %: 0%
10 μM
  Inhibition rate against osteoclast formation, %: 0.5%

## CC(C)(C)c1ccc(OCc2ccc(C(=O)NC3CCCCC3)o2)cc1 [Compound 134]
0.1 μM
  Inhibition rate against osteoclast formation, %: 0%
1 μM
  Inhibition rate against osteoclast formation, %: 0%

## CC(C)(C)c1ccc(OCc2ccc(C(=O)Nc3ccccc3)o2)cc1 [Compound 136]
0.1 μM
  Inhibition rate against osteoclast formation, %: 0%
1 μM
  Inhibition rate against osteoclast formation, %: 0%

## O=C(Nc1ccccc1)c1ccc(COc2ccc3ccccc3c2)o1 [Compound 137]
0.1 μM
  Inhibition rate against osteoclast formation, %: 0%
1 μM
  Inhibition rate against osteoclast formation, %: 0%

## O=C(Nc1cccc(Br)c1)c1ccc(COc2ccc(F)cc2)o1 [Compound 140]
0.1 μM
  Inhibition rate against osteoclast formation, %: 0%
1 μM
  Inhibition rate against osteoclast formation, %: 0%

## O=C(Nc1ccc(F)cc1)c1ccc(COc2cccc(Cl)c2)o1 [Compound 141]
0.1 μM
  Inhibition rate against osteoclast formation, %: 0%
1 μM
  Inhibition rate against osteoclast formation, %: 0%

## COc1ccc(NC(=O)c2ccc(COc3ccccc3Cl)o2)cc1Cl [Compound 142]
0.1 μM
  Inhibition rate against osteoclast formation, %: 0%
1 μM
  Inhibition rate against osteoclast formation, %: 0%

## O=C(Nc1ccc(F)c(F)c1)c1ccc(COc2ccc(I)cc2)o1 [Compound 143]
0.1 μM
  Inhibition rate against osteoclast formation, %: 0%
1 μM
  Inhibition rate against osteoclast formation, %: 0%

## CCOc1ccccc1NC(=O)c1ccc(COc2ccc(Cl)cc2[N+](=O)[O-])o1 [Compound 144]
0.1 μM
  Inhibition rate against osteoclast formation, %: 0%

## COc1ccc(NC(=O)c2ccc(COc3cc(Cl)ccc3Cl)o2)c(OC)c1 [Compound 145]
0.1 μM
  Inhibition rate against osteoclast formation, %: 0%

## O=C(Nc1ccc(Br)cc1)c1ccc(COc2ccc(I)cc2)o1 [Compound 146]
0.1 μM
  Inhibition rate against osteoclast formation, %: 0%
1 μM
  Inhibition rate against osteoclast formation, %: 0%

## NC(=O)c1ccc(NC(=O)c2ccc(COc3cc(Cl)ccc3Cl)o2)cc1 [Compound 148]
0.1 μM
  Inhibition rate against osteoclast formation, %: 0%

## COc1ccc(NC(=O)c2ccc(COc3ccc(F)cc3)o2)c([N+](=O)[O-])c1 [Compound 149]
0.1 μM
  Inhibition rate against osteoclast formation, %: 0%

## COc1ccc(NC(=O)c2ccc(COc3ccc(Cl)c(C)c3)o2)cc1 [Compound 150]
0.1 μM
  Inhibition rate against osteoclast formation, %: 0%
1 μM
  Inhibition rate against osteoclast formation, %: 0%

## O=C(Nc1cc(F)ccc1F)c1ccc(COc2cccc(Cl)c2)o1 [Compound 151]
0.1 μM
  Inhibition rate against osteoclast formation, %: 0%
1 μM
  Inhibition rate against osteoclast formation, %: 0%

## COC(=O)c1ccc(C)c(NC(=O)c2ccc(COc3ccc(I)cc3)o2)c1 [Compound 152]
1 μM
  Inhibition rate against osteoclast formation, %: 0.08%

## Cc1ccc(F)c(NC(=O)c2ccc(COc3ccc(C)cc3[N+](=O)[O-])o2)c1 [Compound 155]
0.1 μM
  Inhibition rate against osteoclast formation, %: 0%
1 μM
  Inhibition rate against osteoclast formation, %: 0%

## Cc1ccc(F)c(NC(=O)c2ccc(COc3ccccc3[N+](=O)[O-])o2)c1 [Compound 158]
0.1 μM
  Inhibition rate against osteoclast formation, %: 0%
1 μM
  Inhibition rate against osteoclast formation, %: 0%

## CC(=O)c1ccc(NC(=O)c2ccc(COc3cccc4ccccc34)o2)cc1 [Compound 160]
0.1 μM
  Inhibition rate against osteoclast formation, %: 0%
1 μM
  Inhibition rate against osteoclast formation, %: 0%

## O=C(Nc1cc(F)ccc1F)c1ccc(COc2ccccc2Cl)o1 [Compound 161]
0.1 μM
  Inhibition rate against osteoclast formation, %: 0%
1 μM
  Inhibition rate against osteoclast formation, %: 0%

## CCc1cccc(NC(=O)c2ccc(COc3ccc(F)cc3)o2)c1 [Compound 163]
0.1 μM
  Inhibition rate against osteoclast formation, %: 0%
1 μM
  Inhibition rate against osteoclast formation, %: 0%

## CCCc1ccc(OCc2ccc(C(=O)Nc3ccc(OC)c(OC)c3)o2)cc1 [Compound 164]
0.1 μM
  Inhibition rate against osteoclast formation, %: 0%
1 μM
  Inhibition rate against osteoclast formation, %: 0%

## COc1ccccc1NC(=O)c1ccc(COc2ccccc2OC)o1 [Compound 166]
0.1 μM
  Inhibition rate against osteoclast formation, %: 0%
1 μM
  Inhibition rate against osteoclast formation, %: 0%

## COC(=O)c1ccccc1NC(=O)c1ccc(COc2ccc(Cl)cc2Cl)o1 [Compound 167]
0.1 μM
  Inhibition rate against osteoclast formation, %: 0%

## CCc1ccc(OCc2ccc(C(=O)Nc3cc(C)cc(C)c3)o2)cc1 [Compound 169]
0.1 μM
  Inhibition rate against osteoclast formation, %: 0%
1 μM
  Inhibition rate against osteoclast formation, %: 0%

— patent publication US20080221205A1, “FURAN DERIVATIVES FOR PREVENTING AND CURING OSTEOPOROSIS AND PHARMACEUTICAL COMPOSITIONS CONTAINING THE SAME” (priority 2002, published 2008)
